Activity calls are given as the source filed them.
Assays:
[1] = molecular target: T1, 1-phosphatidylinositol 4,5-bisphosphate phosphodiesterase beta-3 (Homo sapiens, UniProt Q01970); assay: Fluorescence-based biochemical high throughput dose response assay to identify inhibitors of phospholipase C isozymes (PLC-B3).
T1 sequence (Q01970 whole entry): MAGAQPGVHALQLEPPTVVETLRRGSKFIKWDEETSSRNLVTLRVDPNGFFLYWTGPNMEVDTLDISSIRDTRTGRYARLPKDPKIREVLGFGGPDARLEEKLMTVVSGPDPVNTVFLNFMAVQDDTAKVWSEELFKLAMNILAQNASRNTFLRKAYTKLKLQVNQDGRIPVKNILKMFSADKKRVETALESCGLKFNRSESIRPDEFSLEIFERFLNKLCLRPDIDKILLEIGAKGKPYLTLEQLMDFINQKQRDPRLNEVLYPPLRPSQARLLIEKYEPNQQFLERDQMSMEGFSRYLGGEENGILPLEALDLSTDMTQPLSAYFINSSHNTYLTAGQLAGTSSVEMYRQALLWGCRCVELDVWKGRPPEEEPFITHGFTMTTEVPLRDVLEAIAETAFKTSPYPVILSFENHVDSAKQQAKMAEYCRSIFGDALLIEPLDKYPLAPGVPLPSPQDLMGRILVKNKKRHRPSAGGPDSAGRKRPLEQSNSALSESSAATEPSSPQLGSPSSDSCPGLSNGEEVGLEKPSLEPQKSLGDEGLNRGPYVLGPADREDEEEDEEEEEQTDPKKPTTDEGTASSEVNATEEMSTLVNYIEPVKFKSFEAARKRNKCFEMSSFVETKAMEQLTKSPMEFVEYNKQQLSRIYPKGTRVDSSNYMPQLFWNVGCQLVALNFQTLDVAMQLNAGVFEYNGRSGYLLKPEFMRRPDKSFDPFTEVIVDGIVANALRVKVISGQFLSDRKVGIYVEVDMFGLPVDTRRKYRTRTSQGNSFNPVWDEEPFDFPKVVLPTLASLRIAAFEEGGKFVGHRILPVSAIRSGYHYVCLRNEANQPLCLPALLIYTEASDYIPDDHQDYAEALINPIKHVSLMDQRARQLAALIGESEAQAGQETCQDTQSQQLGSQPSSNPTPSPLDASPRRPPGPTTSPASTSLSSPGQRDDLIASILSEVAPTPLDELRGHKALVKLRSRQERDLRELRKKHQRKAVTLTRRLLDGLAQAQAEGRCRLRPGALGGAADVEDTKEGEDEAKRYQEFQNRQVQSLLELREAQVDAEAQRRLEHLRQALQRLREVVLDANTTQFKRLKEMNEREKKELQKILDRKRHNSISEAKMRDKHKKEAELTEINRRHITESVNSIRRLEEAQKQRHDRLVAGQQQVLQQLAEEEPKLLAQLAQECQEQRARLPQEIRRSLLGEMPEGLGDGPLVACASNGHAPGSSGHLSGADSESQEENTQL

[2] = molecular target: T2, Caspase-6 (Homo sapiens, UniProt P55212); assay: human caspase-6 inhibitors, dose response, biochemical, VEID-R110 fluorescence, cherry-pick (AID 720632)
T2 sequence (P55212 whole entry): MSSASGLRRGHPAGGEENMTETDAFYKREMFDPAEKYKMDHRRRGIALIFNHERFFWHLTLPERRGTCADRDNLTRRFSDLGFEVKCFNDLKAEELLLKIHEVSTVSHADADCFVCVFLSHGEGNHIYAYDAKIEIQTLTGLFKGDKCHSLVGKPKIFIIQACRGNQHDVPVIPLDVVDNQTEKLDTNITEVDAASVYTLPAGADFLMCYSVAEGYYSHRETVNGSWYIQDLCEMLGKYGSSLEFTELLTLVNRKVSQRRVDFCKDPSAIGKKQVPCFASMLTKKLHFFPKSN

[3] = molecular target: T3, Endoribonuclease toxin MazF (Escherichia coli K-12, UniProt P0AE70); assay: SAR analysis of small molecule activators of the MazEF TA System via a fluorescence-based single-stranded RNase assay counterscreen. [Related pubchem assays (depositor defined):AID504720, AID504743]; type: functional
T3 sequence (P0AE70 whole entry): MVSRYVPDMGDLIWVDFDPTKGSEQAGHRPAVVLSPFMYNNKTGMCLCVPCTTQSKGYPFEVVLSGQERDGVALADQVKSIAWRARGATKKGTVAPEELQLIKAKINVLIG

[4] = molecular target: T4, RNA-editing ligase 1, mitochondrial (Trypanosoma brucei brucei, UniProt P86926); assay: TbREL1 ligase inhibitors, dose response, biochemical, fluorescence, Trypanosoma brucei (AID 1117295); type: functional
T4 sequence (P86926 whole entry): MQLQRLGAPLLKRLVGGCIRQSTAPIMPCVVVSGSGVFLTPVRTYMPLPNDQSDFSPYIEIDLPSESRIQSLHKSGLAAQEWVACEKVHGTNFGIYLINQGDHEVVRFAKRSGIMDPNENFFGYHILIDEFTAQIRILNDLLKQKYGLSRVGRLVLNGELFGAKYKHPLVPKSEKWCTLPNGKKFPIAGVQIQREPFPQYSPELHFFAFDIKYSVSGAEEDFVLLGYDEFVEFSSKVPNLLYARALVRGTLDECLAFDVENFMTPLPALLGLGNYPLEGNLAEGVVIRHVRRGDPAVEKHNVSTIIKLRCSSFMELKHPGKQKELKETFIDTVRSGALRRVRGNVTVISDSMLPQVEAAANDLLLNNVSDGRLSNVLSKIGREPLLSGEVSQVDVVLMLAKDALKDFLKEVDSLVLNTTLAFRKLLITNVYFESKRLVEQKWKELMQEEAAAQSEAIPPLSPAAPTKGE

[5] = cytotoxicity in HEK-293T cells, dose response, cytotoxicity control for TCR NF-kB inhibitor project, luminescence, T-cell screen hits (AID 489026); type: functional, cell-based;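 further: cells exposed to compound about 14 hours before the viability readout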

O=C(CCN1C(=O)/C(=C\c2ccco2)SC1=S)Nc1ccc(C(=O)O)c(O)c1
IC50 [1]: > 122 µM (inactive)

Oc1nc(Nc2ccccc2Cl)cc2ccccc12
AC50 [2]: 3.75 µM (active)

O=C1C=C(c2c(O)ccc3ccccc23)c2ccccc2C1=O
EC50 [3]: > 99 µM (inactive)

Cc1nc2c(=O)n(C)c(=O)nc-2n(C)n1
IC50 [4]: 0.411 µM (active) | IC50 [5]: 9.41 µM (active)

— ChEMBL document CHEMBL1201862, “PubChem BioAssay data set” (2004)
